In patent US9546194B2, “Aminosteroids for the treatment of a PTP1B associated disease” (Ohr Pharmaceutical Inc., priority 2012, dated 2017):

Assays:
[1] = biological target: T1, full length TCPTP (Homo sapiens, UniProt P17706); test: Inhibition of TCPTP (pNPP hydrolysis, same manner as PTP1B assay); assay type: biochemical; settings: 200 μM inhibitor; pNPP substrate; read-out: TCPTP % Inhib. at (200 μM)
T1 construct: except full length TCPTP was used as the enzyme
T1 sequence (P17706 1-415): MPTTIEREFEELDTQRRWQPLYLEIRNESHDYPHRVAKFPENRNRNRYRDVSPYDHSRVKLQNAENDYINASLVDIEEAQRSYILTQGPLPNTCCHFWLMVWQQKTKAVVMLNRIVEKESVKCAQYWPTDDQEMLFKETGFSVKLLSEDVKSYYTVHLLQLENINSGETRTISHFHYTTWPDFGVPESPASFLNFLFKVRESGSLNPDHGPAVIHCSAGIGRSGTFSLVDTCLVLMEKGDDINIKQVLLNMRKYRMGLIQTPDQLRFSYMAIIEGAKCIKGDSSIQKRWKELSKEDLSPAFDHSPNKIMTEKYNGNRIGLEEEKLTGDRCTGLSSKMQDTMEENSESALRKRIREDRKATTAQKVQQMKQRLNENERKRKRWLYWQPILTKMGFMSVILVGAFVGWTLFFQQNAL
Method: (§1) The aminosteroid analogues were tested for inhibition against the commercially available full length tyrosine phosphatase PTP1B. The ability of each analogue to inhibit the activity of PTP1B was measured in the presence of 5 μM of the aminosteroid analogue. The assay uses para-nitro-phenyl phosphate (pNPP), a non-specific substrate to assess phosphatase activity. Phosphatase activity was based on the ability of PTP1B to catalyze the hydrolysis of pNPP to p-nitrophenol (pNP).
The aminosteroid analogues were also tested for their ability to inhibit the tyrosine phosphatase TCPTP as an indication of their potential toxicity by the inhibition of the immune response. The TCPTP inhibition assay was done in the same manner as the PTP1B assay except full length TCPTP was used as the enzyme and the inhibitor was at a concentration of 200 μM. The results of the TCPTP inhibition assays are shown in Table 1, column 4 and show three compounds that inhibit TCPTP less than 50% even at a […] greater concentration.

[2] = biological target: T2, full length tyrosine phosphatase PTP1B (Homo sapiens, UniProt P18031); test: Inhibition of PTP1B (pNPP hydrolysis, absorbance at 405 nm); assay type: biochemical; settings: 5 μM aminosteroid analogue; pNPP substrate; read-out: PTP1B % Inhib. at (5 μM)
T2 construct: purchased
T2 sequence (P18031 1-435): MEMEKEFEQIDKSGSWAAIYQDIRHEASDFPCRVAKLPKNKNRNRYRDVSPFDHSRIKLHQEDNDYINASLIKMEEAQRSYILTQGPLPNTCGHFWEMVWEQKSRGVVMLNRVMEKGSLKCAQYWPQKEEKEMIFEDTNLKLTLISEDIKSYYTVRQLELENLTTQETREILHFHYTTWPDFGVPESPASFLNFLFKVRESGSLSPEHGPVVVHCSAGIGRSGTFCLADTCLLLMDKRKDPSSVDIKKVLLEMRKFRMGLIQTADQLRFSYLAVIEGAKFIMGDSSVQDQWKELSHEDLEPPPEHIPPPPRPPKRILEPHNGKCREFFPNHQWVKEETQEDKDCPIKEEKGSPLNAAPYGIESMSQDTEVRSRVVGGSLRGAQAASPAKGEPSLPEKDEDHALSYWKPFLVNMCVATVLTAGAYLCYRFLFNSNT
Method: as §1

Row | Compound | inhibition at 200 µM [1] [%] | inhibition at 5 µM [2] [%]
1 | COC(=O)CC[C@@H](C)[C@H]1CCC2C3C(CC[C@@]21C)[C@@]1(C)CC[C@H](NCCN2CCCCC2)C[C@@H]1C[C@H]3O (stereo partly drawn) [MSI-2518] | 12 | 102
2 | COC(=O)CC[C@@H](C)[C@H]1CCC2C3C(CC[C@@]21C)[C@@]1(C)CCC(NCCNC(C)C)C[C@@H]1C[C@H]3O (stereo partly drawn) [MSI-2519] | 26 | 102
3 | COC(=O)CC[C@@H](C)[C@H]1CCC2C3CC[C@@H]4C[C@H](NCCNC(C)C)CC[C@]4(C)C3CC[C@@]21C (stereo partly drawn) [MSI-2521] | 67 | 103
4 | COC(=O)CC[C@@H](C)[C@H]1CCC2C3CC[C@@H]4C[C@@H](NCCNC(C)C)CC[C@]4(C)C3CC[C@@]21C (stereo partly drawn) [MSI-2522] | 50 | 104
5 | COC(=O)CC[C@@H](C)[C@H]1CCC2C3C[C@H](O)[C@@H]4C[C@H](NCCNC(C)C)CC[C@]4(C)C3CC[C@@]21C (stereo partly drawn) [MSI-2523] | 8 | 101
6 | COC(=O)CC[C@@H](C)[C@H]1CCC2C3C[C@H](O)[C@@H]4C[C@@H](NCCNC(C)C)CC[C@]4(C)C3CC[C@@]21C (stereo partly drawn) [MSI-2524] | 15 | 103
7 | COC(=O)CC[C@@H](C)[C@H]1CCC2C3CC[C@@H]4C[C@@H](NCCNC(C)C)CC[C@]4(C)C3C[C@H](O)[C@@]21C (stereo partly drawn) [MSI-2526] |  | 104
8 | COC(=O)CC[C@@H](C)[C@H]1CCC2C3C(CC[C@@]21C)[C@@]1(C)CCC(NCCNC(C)C)C[C@@H]1C[C@H]3NC(=O)OC (stereo partly drawn) [MSI-2528] | 2 | 75
9 | COC(=O)CC[C@@H](C)[C@H]1CCC2C3C(CC[C@@]21C)[C@@]1(C)CC[C@@H](NCCNC(C)C)C[C@@H]1C[C@H]3SC (stereo partly drawn) [MSI-2529] | 4 | 64
10 | COC(=O)CC[C@@H](C)[C@H]1CCC2C3C(CC[C@@]21C)[C@@]1(C)CCC(NCCNC(C)C)C[C@@H]1C[C@H]3S(C)(=O)=O (stereo partly drawn) [MSI-2530] | 1 | 46
11 | COC(=O)CC[C@@H](C)[C@H]1CCC2C3C(CC[C@@]21C)[C@@]1(C)CC[C@H](NCCNC(C)C)C[C@@H]1C[C@H]3S(C)(=O)=O (stereo partly drawn) [MSI-2531] | 1 | 48
12 | COC(=O)CC[C@@H](C)[C@H]1CCC2C3C(CC[C@@]21C)[C@@]1(C)CCC(NCCN(C)C)C[C@H]1C[C@H]3O (stereo partly drawn) [MSI-2533] | 5 | 
13 | COC(=O)CC[C@@H](C)[C@H]1CCC2C3CC[C@@H]4C[C@H](NCCN(C)C)CC[C@]4(C)C3CC[C@@]21C (stereo partly drawn) [MSI-2534] | 0 | 
14 | COC(=O)CC[C@@H](C)[C@H]1CCC2C3CC[C@@H]4CC(NCCN(C)C)CC[C@]4(C)C3CC[C@@]21C (stereo partly drawn) [MSI-2535] | 8 | 
